{"source": "patent US9211310B2", "about": "“Use of a Chinese medicine composition in preparing medicaments for treating secondary prevention of myocardial infarction” (TASLY PHARMACEUTICAL GROUP CO., LTD, priority 2010, dated 2015)", "test_system": "patients after acute myocardial infarction", "assay": "Life quality, Seattle Angina Questionnaire (SAQ), same clinical trial", "type": "in vivo, human", "details": "FAS", "text": "3508 patients who were in accordance with the diagnostic standards of AMI for 28 days to 2 years and differentiated as Qi deficiency and blood stagnation syndrome by TCM were studied. 0.5 g Chinese medicine composition prepared by the method of EXAMPLE 1 (Coded as QSYQ) was administrated half an hour after meal, 3 times per day.\nThere were 19 questions in the Seattle angina questionnaire (SAQ), including 5 parts: physical limitation (PL), anginal stability (AS), anginal frequency (AF), treatment satisfaction (TS) and disease perception (DP). After being given necessary explanation by doctors, the questions were answered independently by patients.\nThey included the overall survival time, angina pectoris score, TCM symptom score and life quality score, where angina pectoris score, TCM symptom score and life quality score were evaluated at randomization, in 1st, 3rd, 6th, 9th, 12th month after treatment and 18th month after follow-up.\nAll evaluation results of SAQ were described during the period of observation, and Wilcoxon rank sum test was used for inter-group comparison.\nThe evaluation results in the SAQ were depicted in different observations, and inter-group comparison was tested by Wilcoxon Rank-sum test.", "data": [{"smiles": "CC(=O)Oc1ccccc1C(=O)O", "note": "[Control group, aspirine]", "values": [{"measurement": "SAQ Question 1-8: Mildly limited, patients (%)", "setting": "6 months after treatment", "result": "(25.30%)"}, {"measurement": "SAQ Question 1-8: Moderately limited, patients (%)", "setting": "6 months after treatment", "result": "(16.42%)"}, {"measurement": "SAQ Question 1-8: Not limited, patients (%)", "setting": "6 months after treatment", "result": "(10.62%)"}, {"measurement": "SAQ Question 1-8: Other reasons, patients (%)", "setting": "6 months after treatment", "result": "(3.77%)"}, {"measurement": "SAQ Question 1-8: Severely limited, patients (%)", "setting": "6 months after treatment", "result": "(19.38%)"}, {"measurement": "SAQ Question 1-8: Slightly limited, patients (%)", "setting": "6 months after treatment", "result": "(24.49%)"}, {"measurement": "8th question: Mostly satisfied, patients (%)", "setting": "6 months after treatment, second line of the scale", "result": "(2.24%)"}, {"measurement": "8th question: Dissatisfied, patients (%)", "setting": "9 months after treatment", "result": "(0.34%)"}, {"measurement": "8th question: Highly satisfied, patients (%)", "setting": "9 months after treatment", "result": "(22.36%)"}, {"measurement": "8th question: Mostly dissatisfied, patients (%)", "setting": "9 months after treatment", "result": "(1.89%)"}, {"measurement": "8th question: Mostly satisfied, patients (%)", "setting": "9 months after treatment", "result": "(58.31%)"}, {"measurement": "8th question: Partly satisfied, patients (%)", "setting": "9 months after treatment", "result": "(17.09%)"}, {"measurement": "9th question: Few, patients (%)", "setting": "9 months after treatment", "result": "(37.79%)"}, {"measurement": "9th question: Mild, patients (%)", "setting": "9 months after treatment", "result": "(33.08%)"}, {"measurement": "9th question: Moderate, patients (%)", "setting": "9 months after treatment", "result": "(8.77%)"}, {"measurement": "9th question: Severe, patients (%)", "setting": "9 months after treatment", "result": "(0.97%)"}, {"measurement": "9th question: Uneffective, patients (%)", "setting": "9 months after treatment", "result": "(19.38%)"}, {"measurement": "10th question: Dissatisfied, patients (%)", "setting": "9 months after treatment", "result": "(19.55%)"}, {"measurement": "10th question: Highly satisfied, patients (%)", "setting": "9 months after treatment", "result": "(5.73%)"}, {"measurement": "10th question: Mostly dissatisfied, patients (%)", "setting": "9 months after treatment", "result": "(20.47%)"}, {"measurement": "10th question: Mostly satisfied, patients (%)", "setting": "9 months after treatment", "result": "(28.84%)"}, {"measurement": "10th question: Partly satisfied, patients (%)", "setting": "9 months after treatment", "result": "(25.40%)"}, {"measurement": "11th question: Continuously worried, patients (%)", "setting": "9 months after treatment", "result": "(3.44%)"}, {"measurement": "11th question: No worried, patients (%)", "setting": "9 months after treatment", "result": "(6.02%)"}, {"measurement": "11th question: Occasionally worried, patients (%)", "setting": "9 months after treatment", "result": "(41.80%)"}, {"measurement": "11th question: Often worried, patients (%)", "setting": "9 months after treatment", "result": "(12.33%)"}, {"measurement": "11th question: Seldom worried, patients (%)", "setting": "9 months after treatment", "result": "(36.41%)"}, {"measurement": "SAQ 4th question, 1-2 times per week: % of patients", "setting": "9 months after treatment", "result": "(15.60%)"}, {"measurement": "SAQ 4th question, 1-2 times per week: number of patients", "setting": "9 months after treatment", "result": 272}, {"measurement": "SAQ 4th question, 1-3 times per week: % of patients", "setting": "9 months after treatment", "result": "(4.30%)"}, {"measurement": "SAQ 4th question, 1-3 times per week: number of patients", "setting": "9 months after treatment", "result": 75}, {"measurement": "SAQ 4th question, <1 time per week: % of patients", "setting": "9 months after treatment", "result": "(15.14%)"}, {"measurement": "SAQ 4th question, <1 time per week: number of patients", "setting": "9 months after treatment", "result": 264}, {"measurement": "SAQ 4th question, Not used: % of patients", "setting": "9 months after treatment", "result": "(59.69%)"}, {"measurement": "SAQ 4th question, Not used: number of patients", "setting": "9 months after treatment", "result": 1041}, {"measurement": "SAQ 4th question, ≧3 times per week: % of patients", "setting": "9 months after treatment", "result": "(5.16%)"}, {"measurement": "SAQ 4th question, ≧3 times per week: number of patients", "setting": "9 months after treatment", "result": 90}, {"measurement": "SAQ 4th question, ≧4 times per day: % of patients", "setting": "9 months after treatment", "result": "(0.11%)"}, {"measurement": "SAQ 4th question, ≧4 times per day: number of patients", "setting": "9 months after treatment", "result": 2}, {"measurement": "SAQ 5th question, 1-2 times per week: % of patients", "setting": "9 months after treatment", "result": "(28.67%)"}, {"measurement": "SAQ 5th question, 1-2 times per week: number of patients", "setting": "9 months after treatment", "result": 500}, {"measurement": "SAQ 5th question, 1-3 times per day: % of patients", "setting": "9 months after treatment", "result": "(7.97%)"}, {"measurement": "SAQ 5th question, 1-3 times per day: number of patients", "setting": "9 months after treatment", "result": 139}, {"measurement": "SAQ 5th question, <1 time per week: % of patients", "setting": "9 months after treatment", "result": "(28.56%)"}, {"measurement": "SAQ 5th question, <1 time per week: number of patients", "setting": "9 months after treatment", "result": 498}, {"measurement": "SAQ 5th question, No onset: % of patients", "setting": "9 months after treatment", "result": "(4.47%)"}, {"measurement": "SAQ 5th question, No onset: number of patients", "setting": "9 months after treatment", "result": 78}, {"measurement": "SAQ 5th question, ≧3 times per week: % of patients", "setting": "9 months after treatment", "result": "(29.42%)"}, {"measurement": "SAQ 5th question, ≧3 times per week: number of patients", "setting": "9 months after treatment", "result": 513}, {"measurement": "SAQ 5th question, ≧4 times per day: % of patients", "setting": "9 months after treatment", "result": "(0.92%)"}, {"measurement": "SAQ 5th question, ≧4 times per day: number of patients", "setting": "9 months after treatment", "result": 16}, {"measurement": "SAQ 6th question, Dissatisfied: % of patients", "setting": "9 months after treatment", "result": "(0.23%)"}, {"measurement": "SAQ 6th question, Dissatisfied: number of patients", "setting": "9 months after treatment", "result": 4}, {"measurement": "SAQ 6th question, Highly satisfied: % of patients", "setting": "9 months after treatment", "result": "(23.62%)"}, {"measurement": "SAQ 6th question, Highly satisfied: number of patients", "setting": "9 months after treatment", "result": 412}, {"measurement": "SAQ 6th question, Mostly dissatisfied: % of patients", "setting": "9 months after treatment", "result": "(1.95%)"}, {"measurement": "SAQ 6th question, Mostly dissatisfied: number of patients", "setting": "9 months after treatment", "result": 34}, {"measurement": "SAQ 6th question, Mostly satisfied: % of patients", "setting": "9 months after treatment", "result": "(58.77%)"}, {"measurement": "SAQ 6th question, Mostly satisfied: number of patients", "setting": "9 months after treatment", "result": 1025}, {"measurement": "SAQ 6th question, Partly satisfied: % of patients", "setting": "9 months after treatment", "result": "(15.42%)"}, {"measurement": "SAQ 6th question, Partly satisfied: number of patients", "setting": "9 months after treatment", "result": 269}, {"measurement": "SAQ 7th question, Dissatisfied: % of patients", "setting": "9 months after treatment", "result": "(0.11%)"}, {"measurement": "SAQ 7th question, Dissatisfied: number of patients", "setting": "9 months after treatment", "result": 2}, {"measurement": "SAQ 7th question, Highly satisfied: % of patients", "setting": "9 months after treatment", "result": "(27.21%)"}, {"measurement": "SAQ 7th question, Highly satisfied: number of patients", "setting": "9 months after treatment", "result": 474}, {"measurement": "SAQ 7th question, Most dissatisfied: % of patients", "setting": "9 months after treatment", "result": "(1.09%)"}, {"measurement": "SAQ 7th question, Most dissatisfied: number of patients", "setting": "9 months after treatment", "result": 19}, {"measurement": "SAQ 7th question, Mostly satisfied: % of patients", "setting": "9 months after treatment", "result": "(59.53%)"}, {"measurement": "SAQ 7th question, Mostly satisfied: number of patients", "setting": "9 months after treatment", "result": 1037}, {"measurement": "SAQ 7th question, Partly satisfied: % of patients", "setting": "9 months after treatment", "result": "(12.06%)"}, {"measurement": "SAQ 7th question, Partly satisfied: number of patients", "setting": "9 months after treatment", "result": 210}, {"measurement": "SAQ Question 1-1 Mildly limited, number of patients", "setting": "9 months after treatment", "result": 25}, {"measurement": "SAQ Question 1-1 Mildly limited, percent of patients", "setting": "9 months after treatment", "result": "(1.43%)"}, {"measurement": "SAQ Question 1-1 Moderately limited, number of patients", "setting": "9 months after treatment", "result": 5}, {"measurement": "SAQ Question 1-1 Moderately limited, percent of patients", "setting": "9 months after treatment", "result": "(0.29%)"}, {"measurement": "SAQ Question 1-1 Not limited, number of patients", "setting": "9 months after treatment", "result": 1643}, {"measurement": "SAQ Question 1-1 Not limited, percent of patients", "setting": "9 months after treatment", "result": "(94.21%)"}, {"measurement": "SAQ Question 1-1 Other reasons, number of patients", "setting": "9 months after treatment", "result": 3}]}]}
